Source: PMC9317966, “Structure-function analysis of the AMPK activator SC4 and identification of a potent pan AMPK activator” (Biochemical Journal, 2022)

Key:
[1] = tested on: HEK293T/17 cells expressing γ1-R299G AMPK; assay: α-Thr172 phosphorylation immunoblot, HEK293T/17 cells expressing AMP-insensitive γ1 mutant R299G; assay type: cell-based; details: 2.5 µM
Procedure: (§1) To explore this dose-dependent response, we used HEK293T/17 cells transiently expressing WT γ1AMPK or the AMP-insensitive γ1 mutant R299G (Supplementary Figure S4A). […] One explanation is that 2.5 µM MK-8722 caused indirect activation of AMPK (α-Thr172 phosphorylation) by inducing a metabolic stress leading to rises in AMP/ATP and ADP/ATP ratios. We examined the effect of MK-8722 incubation on C2C12 mitochondrial function (Supplementary Figure S4B–I).
(§2) HEK293T/17, HEK293T, COS7, HeLa and PC3 cells (ATCC) were maintained in Dulbecco's Modified Eagle's medium (DMEM; Sigma–Aldrich) supplemented with 10% fetal bovine serum (FBS; Assay Matrix) at 37°C and 5% CO2. Primary hepatocytes from wild type mice were prepared using the collagenase perfusion method and cultured as described previously. […]
(§3) All samples were separated on 12% SDS–PAGE gels and transferred to an Immobilon-FL PVDF membrane (Merck Millipore). […] Immunoblots were visualised on the Odyssey Infrared Imaging System (LI-COR Biosciences) and immunoreactive bands analysed and quantified using Image Studio Software (LI-COR Biosciences).
(§4) Lysates were assessed for phosphorylation of AMPKα-Thr172 by immunoblot. n = 3, data presented as mean T172 phosphorylation (arbitrary units) ± SEM. […] (J) Lysates were assessed for total protein content following the respiration assay.

[2] = tested on: HEK293T/17 cells expressing WT γ1AMPK; assay: α-Thr172 phosphorylation immunoblot, HEK293T/17 cells transiently expressing WT γ1AMPK; assay type: cell-based; details: WT γ1-expressing cells, 2.5 µM, 60 min
Procedure: as §1, §2, §3, §4

[3] = tested on: rodent and non-human primate models of T2DM; set-up: method as in PMID 28705990; details: cited from earlier work
[4] = tested on: HepG2 cells and C2C12 myotubes; set-up: method as in PMID 28705990; details: cited from earlier work
COS7 cells = assay: Immunoblot of AMPK signalling in COS7 cells; assay type: cell-based; details: COS7, 2.5 µM, 1 h
Procedure: (§5) To evaluate the efficacy of MSG011 in cellulo, we incubated mouse primary hepatocytes with 2.5 µM MSG011 for 60 min and tracked changes in phosphorylation of AMPK α-Thr172 (marker of activation) and the AMPK substrate acetyl-CoA carboxylase (ACC) Ser79 (AMPK signalling marker).
(§6) HEK293T/17, HEK293T, COS7, HeLa and PC3 cells (ATCC) were maintained in Dulbecco's Modified Eagle's medium (DMEM; Sigma–Aldrich) supplemented with 10% fetal bovine serum (FBS; Assay Matrix) at 37°C and 5% CO2. Primary hepatocytes from wild type mice were prepared using the collagenase perfusion method and cultured as described previously. Cultures were incubated with fresh DMEM (no FBS) for 2 h prior to 1 h treatment with MSG011 (dissolved in DMSO) or phenformin (dissolved in H2O). Adherent HEK293T/17 cells at ∼50% confluency were triply transfected with AMPK α1 (pcDNA3.1 vector), β1 (COOH-terminal MYC fusion, pcDNA3.1 vector) and WT γ1 or γ1-R299G mutant (NH2-terminal HA fusion, pMT2 vector) in the presence of FuGENE HD transfection reagent (Promega) as per the manufacturers protocol. […]
as §3

HEK293T cells = assay: Immunoblot of AMPK signalling in HEK293T cells; assay type: cell-based; details: 2.5 µM, 1 h
Procedure: as §5, §6, §3

PC3 cells = assay: Immunoblot of AMPK signalling in PC3 cells; assay type: cell-based; details: PC3, 2.5 µM, 1 h
Procedure: as §5, §6, §3

HeLa cells = assay: Immunoblot of AMPK signalling in HeLa cells; assay type: cell-based; details: 2.5 µM, 1 h
Procedure: as §5, §6, §3

[5] = tested on: mouse primary hepatocytes; assay: Immunoblot of AMPK signalling in mouse primary hepatocytes; assay type: cell-based; details: 2.5 µM, 60 min
Procedure: as §5, §6, §3

Which results are given for O[C@@H]1CO[C@H]2[C@@H]1OC[C@H]2Oc1nc2nc(-c3ccc(-c4ccccc4)cc3)c(Cl)cc2[nH]1 [MK-8722, reference compound]?
decrease of induced α-Thr172 phosphorylation relative to WT γ1 cells [1]: ~55%; effect on phosphorylation of α-Thr172 ([1]; 60 min): largely abrogated; phosphorylation of α-Thr172 [2]: significantly increased; cardiac hypertrophy ([3]; lean and diabetic animal models): reversible cardiac hypertrophy; key disease hallmarks (systemic glucose clearance, glycaemic control) ([3]; rodent and non-human primate models of T2DM): robust improvements in key disease hallmarks; α-Thr172 phosphorylation ([4]; above 1 µM): elevated α-Thr172; AMPK signalling ([4]; below 1 µM, in the absence of increased α-Thr172 phosphorylation): stimulate AMPK signalling

What does the source list for CC(=O)NC1CC=C(c2ccc(-c3nc4nc(Oc5ccc(C)c(C(=O)O)c5)[nH]c4cc3Cl)cc2)CC1 (centres unmarked) [MSG011, 5-((5-(4′-Acetamido-2′,3′,4′,5′-tetrahydro-[1,1′-biphenyl]-4-yl)-6-chloro-1H-imidazo[4,5-b]pyridin-2-yl)oxy)-2-methylbenzoic acid]?
AMPK signalling (phosphorylation of ACC-Ser79 and raptor-Ser792) (COS7 cells): at levels comparable to extreme energy stress; AMPK signalling (phosphorylation of ACC-Ser79 and raptor-Ser792) (HEK293T cells): at levels comparable to extreme energy stress; α-Thr172 phosphorylation (HEK293T cells): independent of changes to α-Thr172 phosphorylation; AMPK signalling (phosphorylation of ACC-Ser79 and raptor-Ser792) (PC3 cells): significantly activated AMPK; α-Thr172 phosphorylation (PC3 cells): independent of changes to α-Thr172 phosphorylation; AMPK signalling (phosphorylation of ACC-Ser79 and raptor-Ser792) (HeLa cells): significantly activated AMPK; phosphorylation of AMPK α-Thr172 [5]: independently of significant net phosphorylation of AMPK α-Thr172
